# Assay results published in paper PMC6151383 (Molecules : A Journal of Synthetic Chemistry and Natural …, 2017).
# Read-outs that look alike come from different tables or passages of the source.
# Tests used:
# [1] = test system: Staphylococcus aureus CCM 4516/08; test: Antibacterial microdilution broth MIC, S. aureus; type: cell-based; details: Staphylococcus aureus, CCM4516; 48 h incubation; read-out: MIC SA 48 h
# [2] = test system: Staphylococcus epidermidis H 6966/08; test: Antibacterial microdilution broth MIC, S. epidermidis; type: cell-based; details: Staphylococcus epidermidis, H6966/08; 48 h incubation; read-out: MIC SE 48 h
# [3] = test system: Enterococcus faecalis J 14365/08; test: Antibacterial microdilution broth MIC, E. faecalis; type: cell-based; details: Enterococcus faecalis, J14365/08; 48 h incubation; read-out: MIC EF 48 h
# [4] = test system: Escherichia coli CCM 4517; test: Antibacterial microdilution broth MIC, E. coli; type: cell-based; details: Escherichia coli, CCM4517; 48 h incubation; read-out: MIC EC 48 h
# [5] = test system: Pseudomonas aeruginosa CCM 1961; test: Antibacterial microdilution broth MIC, P. aeruginosa; type: cell-based; details: Pseudomonas aeruginosa, CCM1961; 48 h incubation; read-out: MIC PA 48 h
# [6] = test system: Mycobacterium tuberculosis 331/88 (H37Rv); test: In vitro antimycobacterial MIC, M. tuberculosis; type: cell-based
# [7] = test system: Mycobacterium avium 330/88; test: In vitro antimycobacterial MIC, M. avium; type: cell-based
# [8] = test system: Mycobacterium kansasii 235/80; test: In vitro antimycobacterial MIC, M. kansasii 235/80; type: cell-based
# M. kansasii 6509/96 [9] = test: In vitro antimycobacterial MIC, M. kansasii clinical isolate; type: cell-based; details: Mycobacterium kansasii
# [10] = test system: Candida albicans ATCC 44859; test: Antifungal microdilution broth MIC, C. albicans; type: cell-based; details: ATCC44859, 48 h incubation, read-out: MIC CA 48 h
# Candida tropicalis 156 [11] = test: Antifungal microdilution broth MIC, C. tropicalis; type: cell-based; details: Candida tropicalis, 156; 48 h incubation; read-out: MIC CT 48 h
# Candida krusei E28 [12] = test: Antifungal microdilution broth MIC, C. krusei; type: cell-based; details: Pichia kudriavzevii, E28; 48 h incubation; read-out: MIC CK 48 h
# Candida glabrata 20/I [13] = test: Antifungal microdilution broth MIC, C. glabrata; type: cell-based; details: Nakaseomyces glabratus, 48 h incubation, read-out: MIC CG 48 h
# Trichosporon asahii 1188 [14] = test: Antifungal microdilution broth MIC, T. asahii; type: cell-based; details: Trichosporon asahii, 1188; 48 h incubation; read-out: MIC TA 48 h
# [15] = test system: Aspergillus fumigatus 231; test: Antifungal microdilution broth MIC, A. fumigatus; type: cell-based; details: Aspergillus fumigatus, 231; 48 h incubation; read-out: MIC AF 48 h
# [16] = test system: Lichtheimia corymbifera 272; test: Antifungal microdilution broth MIC, L. corymbifera; type: cell-based; details: Lichtheimia corymbifera, 272; 48 h incubation; read-out: MIC LC 48 h
# [17] = test system: Trichophyton interdigitale 445; test: Antifungal microdilution broth MIC, T. interdigitale; type: cell-based
# Candida sp. = test: Selectivity index for Candida sp. (IC50 HepG2/MIC); type: cell-based; details: all Candida species
# M. tuberculosis and NTM = test: Antimycobacterial activity, panel; type: cell-based; details: Mycobacterium tuberculosis
# [18] = test system: Klebsiella pneumoniae D 11750/08
# [19] = test system: ESBL-positive Klebsiella pneumoniae J 14368/08
# [20] = test system: Gram-positive and Gram-negative bacteria; details: both Gram-positive and Gram-negative bacteria; cited from earlier work
# [21] = test system: Staphylococcus aureus CCM 4516/08; parameters: method as in PMID 22365879; details: 48 h incubation; cited from earlier work
# [22] = test system: Staphylococcus epidermidis H 6966/08; parameters: method as in PMID 22365879; details: 48 h incubation; cited from earlier work
# [23] = test system: Enterococcus faecalis J 14365/08; parameters: method as in PMID 22365879; details: 48 h incubation; cited from earlier work
# [24] = test system: Escherichia coli CCM 4517; parameters: method as in PMID 22365879; details: 48 h incubation; cited from earlier work
# [25] = test system: Klebsiella pneumoniae D 11750/08; parameters: method as in PMID 22365879; details: 48 h incubation; cited from earlier work
# [26] = test system: ESBL-positive Klebsiella pneumoniae J 14368/08; parameters: method as in PMID 22365879; details: 48 h incubation; cited from earlier work
# [27] = test system: Pseudomonas aeruginosa CCM 1961; parameters: method as in PMID 22365879; details: 48 h incubation; cited from earlier work
# [28] = test system: Mycobacterium tuberculosis 331/88 (H37Rv); parameters: method as in PMID 22365879; details: cited from earlier work
# [29] = test system: Mycobacterium avium 330/88; parameters: method as in PMID 22365879; details: cited from earlier work
# [30] = test system: Mycobacterium kansasii 235/80; parameters: method as in PMID 22365879; details: cited from earlier work
# M. kansasii 6509/96 [31] = test system: M. kansasii 6509/96; parameters: method as in PMID 22365879; details: cited from earlier work
# [32] = test system: Candida albicans ATCC 44859; parameters: method as in PMID 22365879; details: 48 h incubation; cited from earlier work
# Candida tropicalis 156 [33] = test system: Candida tropicalis 156; parameters: method as in PMID 22365879; details: 48 h incubation; cited from earlier work
# Candida krusei E28 [34] = test system: Candida krusei E28; parameters: method as in PMID 22365879; details: 48 h incubation; cited from earlier work
# Candida glabrata 20/I [35] = test system: Candida glabrata 20/I; parameters: method as in PMID 22365879; details: 48 h incubation; cited from earlier work
# Trichosporon asahii 1188 [36] = test system: Trichosporon asahii 1188; parameters: method as in PMID 22365879; details: 48 h incubation; cited from earlier work
# [37] = test system: Aspergillus fumigatus 231; parameters: method as in PMID 22365879; details: 48 h incubation; cited from earlier work
# [38] = test system: Lichtheimia corymbifera 272; parameters: method as in PMID 22365879; details: 48 h incubation; cited from earlier work
# [39] = test system: Trichophyton interdigitale 445; parameters: method as in PMID 22365879; details: cited from earlier work
# M. kansasii = test system: M. kansasii; parameters: method as in PMID 22365879; details: range over M. kansasii strains; cited from earlier work
smiles,measurement,setting,value
"O=S(=O)(Nc1ncccn1)c1ccc(N=Cc2ccccc2O)cc1 [Compound 2a, 4-[(2-Hydroxybenzylidene)amino]-N-(pyrimidin-2-yl)benzenesulfonamide]",MIC,[1],500 µM
same,MIC,[2],62.5 µM
same,MIC,[3],62.5 µM
same,MIC,[4],> 500 µM
same,MIC,[5],500 µM
same,MIC,"[6]; 336 h, 14 d incubation, read-out: MIC Mtb. 331/88 14 d",16 µM
same,MIC,"[6]; 504 h, 21 d incubation, read-out: MIC Mtb. 331/88 21 d",32 µM
same,MIC,"[7]; 330/88, 336 h, 14 d incubation, read-out: MIC M. avium 330/88 14 d",125 µM
same,MIC,"[7]; 330/88, 504 h, 21 d incubation, read-out: MIC M. avium 330/88 21 d",250 µM
same,MIC,"[8]; 235/80, 168 h, 7 d incubation, read-out: MIC M. kansasii 235/80 7 d",8 µM
same,MIC,"[8]; 235/80, 336 h, 14 d incubation, read-out: MIC M. kansasii 235/80 14 d",16 µM
same,MIC,"[8]; 235/80, 504 h, 21 d incubation, read-out: MIC M. kansasii 235/80 21 d",32 µM
same,MIC,"M. kansasii 6509/96 [9]; 6509/96, 168 h, 7 d incubation, read-out: MIC M. kansasii 6509/96 7 d",8 µM
same,MIC,"M. kansasii 6509/96 [9]; 6509/96, 336 h, 14 d incubation, read-out: MIC M. kansasii 6509/96 14 d",16 µM
same,MIC,"M. kansasii 6509/96 [9]; 6509/96, 504 h, 21 d incubation, read-out: MIC M. kansasii 6509/96 21 d",32 µM
same,MIC,[10],> 500 µM
same,MIC,Candida tropicalis 156 [11],> 500 µM
same,MIC,Candida krusei E28 [12],> 500 µM
same,MIC,Candida glabrata 20/I [13],> 500 µM
same,MIC,Trichosporon asahii 1188 [14],> 500 µM
same,MIC,[15],> 500 µM
same,MIC,[16],> 500 µM
same,MIC,"[17]; Trichophyton interdigitale, 445, 72 h, read-out: MIC TI 72 h",125 µM
same,MIC,"[17]; Trichophyton interdigitale, 445, 120 h, read-out: MIC TI 120 h",125 µM
same,MIC,"[17]; Trichophyton interdigitale, 445, read-out: MIC for T. interdigitale",125 µM
same,SI for Candida sp.,Candida sp.,inactive
same,MIC,"M. tuberculosis and NTM; M. tuberculosis and both M. kansasii strains only, read-out: MIC, M. tuberculosis and both M. kansasii strains",≤ 32 µM
same,MIC,"M. tuberculosis and NTM; range over all four mycobacterial strains and incubation times, read-out: MIC, M. tuberculosis and NTM",8 to 250 µM
same,MIC KP 24 h,[18]; 24 h,>500 µM
same,MIC KP 48 h,[18]; 48 h,>500 µM
same,MIC KP-E 24 h,[19]; 24 h,>500 µM
same,MIC KP-E 48 h,[19]; 48 h,>500 µM
same,minimum inhibitory concentrations (MICs),[20],100 to 250 mg/L
"O=S(=O)(Nc1ncccn1)c1ccc(N=Cc2cc(Cl)ccc2O)cc1 [Compound 2c, 4-[(5-Chloro-2-hydroxybenzylidene)amino]-N-(pyrimidin-2-yl)benzenesulfonamide]",SI for TI,"[17]; SI = IC50 (HepG2)/MIC, Trichophyton interdigitale",inactive
same,MIC SA 48 h,[21],250 µM
same,MIC SE 48 h,[22],>500 µM
same,MIC EF 48 h,[23],>500 µM
same,MIC EC 48 h,[24],>500 µM
same,MIC KP 48 h,[25],>500 µM
same,MIC KP-E 48 h,[26],>500 µM
same,MIC PA 48 h,[27],>500 µM
same,MIC Mtb. 331/88 14 d,[28]; 14 d incubation,125 µM
same,MIC Mtb. 331/88 21 d,[28]; 21 d incubation,250 µM
same,MIC M. avium 330/88 14 d,[29]; 14 d incubation,125 µM
same,MIC M. avium 330/88 21 d,[29]; 21 d incubation,125 µM
same,MIC M. kansasii 235/80 7 d,[30]; 7 d incubation,8 µM
same,MIC M. kansasii 235/80 14 d,[30]; 14 d incubation,16 µM
same,MIC M. kansasii 235/80 21 d,[30]; 21 d incubation,32 µM
same,MIC M. kansasii 6509/96 7 d,M. kansasii 6509/96 [31]; 7 d incubation,16 µM
same,MIC M. kansasii 6509/96 14 d,M. kansasii 6509/96 [31]; 14 d incubation,32 µM
same,MIC M. kansasii 6509/96 21 d,M. kansasii 6509/96 [31]; 21 d incubation,32 µM
same,MIC CA 48 h,[32],125 µM
same,MIC CT 48 h,Candida tropicalis 156 [33],>500 µM
same,MIC CK 48 h,Candida krusei E28 [34],>500 µM
same,MIC CG 48 h,Candida glabrata 20/I [35],125 µM
same,MIC TA 48 h,Trichosporon asahii 1188 [36],125 µM
same,MIC AF 48 h,[37],>500 µM
same,MIC LC 48 h,[38],>500 µM
same,MIC TI 72 h,[39]; 72 h incubation,>500 µM
same,MIC TI 120 h,[39]; 120 h incubation,>500 µM
same,"MIC, M. kansasii strains",M. kansasii,8 to 32 µM
